We go through 13 compounds from patent US20190247398A1, “FORMULATIONS OF A MACROCYCLIC TRK KINASE INHIBITOR” (Array BioPharma Inc., priority 2017, published 2019).

Where two headings read alike, the source gives them in different places. Bounds are passed on as bounds.

For orientation: solubility means the dissolved amount per volume that the medium holds.

Data set [1] can be described thus: Salt stability studies (40° C./75% RH for 1 week, XRPD). Type of data set: physicochemical. The protocol:
Recovered salts were placed in an oven at 40° C./75% RH for 1 week, and the resultant materials were analyzed by XRPD to determine any changes to form or crystallinity.

For data set [2] the following is noted: acid counterion; cited from earlier work.
A short description of data set [3]: Salt disproportionation studies. Type of data set: physicochemical. To be noted: deionized water, 24 h, ambient temperature. Here is the method:
Salt disproportionation studies were carried out as follows: 20 mg of prepared salts were weighed into a vial and 0.5 mL of deionized water was added. The samples were then agitated for 24 h at ambient temperature. The pH of the samples was taken pre- and post-agitation. Any solids recovered were submitted for XRPD analysis to determine any changes to form.

The nature of data set [4]: Dynamic vapor sorption (DVS). It is filed as physicochemical. Here is the method: Approximately, 10 mg of sample was placed into a mesh vapor sorption balance pan and loaded into a DVS-1 dynamic vapor sorption balance by Surface Measurement Systems. The sample was subjected to a ramping profile from 40-90% relative humidity (RH) at 10% increments, maintaining the sample at each step until a stable weight had been achieved (99.5% step completion). After completion of the sorption cycle, the sample was dried using the same procedure to 0% RH and then a second sorption cycle back to 40% RH. The weight change during the sorption/desorption cycles were plotted, allowing for the hygroscopic nature of the sample to be determined. XRPD analysis was then carried out on any solid retained.

Data set [5] in a line: 1 week stability tests (40° C./75% RH, 80° C., ambient light; XRPD and UPLC). It is filed as physicochemical.
Data set [6] is described as follows: Hydration screen (acetone/water mixtures of various water activities). Type of data set: physicochemical. As to conditions: ambient. The protocol: Hydration screen was carried out as follows: 10 mg of prepared salts were suspended in several acetone/water mixtures of various water activities (low: aw=0.281, medium: aw=0.776 and high: aw=0.919) and agitated at ambient temperatures for 24 hr. Any recovered solids were submitted for XRPD analysis to determine any changes to form.

The next data set can be described thus: Thermodynamic solubility. As to conditions: for solubility thermodynamic at 24 h: thermodynamic from solid, ambient temperature, read-out: Concentration (thermodynamic solubility). It is filed as physicochemical. Here is the method: Thermodynamic solubility studies were carried out as follows: 10 mg of prepared salts were suspended in pH 1, 4.5, 6.8 and un-buffered water (300 μL). The pH of the slurries was measured and adjusted accordingly using either 0.2M HCl solution or 0.2M sodium hydroxide solution. The slurries were agitated for 24 hours at ambient temperature using an incubator shaker.

The nature of data set [7]: Solvent solubility of Compound 1 free base (stepwise solvent addition to amorphous material). It is filed as physicochemical. As to conditions: 40 °C, thermodynamic from solid, read-out: Approx. Solubility. Here is the method:
A solid Compound 1 was obtained as follows. A […] of solution containing about 330 mg of Compound 1 in warm 1,4-dioxane was divided between 33, 2 mL glass vials (1.5 mL in each). The solutions were frozen and freeze-dried by lyophilization overnight. The resulting material was then analyzed by XRPD to confirm mostly amorphous material.
Approximately 10 mg of amorphous Compound 1 was produced in 32×2 mL glass vials from freeze drying and 100 μL of the appropriate solvent system was added to the appropriate vial. Between each addition, the mixture was checked for dissolution and if no dissolution was apparent, the mixture was heated to about 40° C. and checked again. This procedure was continued until dissolution was observed or until 2 mL had been added (to the compound concentration of <5 mg/mL).

On to `C[C@@H]1CCc2ncc(F)cc2[C@H]2CCCN2c2ccn3ncc(c3n2)C(=O)N1` [Compound 1 edisylate], for which the “changes to form or crystallinity after stability conditions (XRPD)” value (“changes to form or crystallinity” for short) in data set [1] (salt recovered from isopropanol) is given as “become amorphous”.
`O=C[C@H](O)[C@@H](O)[C@H](O)[C@H](O)C(=O)O` [D-Glucuronic acid]: the “pKa 1” value in data set [2] is 3.18.
In the case of `C[C@@H]1CCc2ncc(F)cc2[C@H]2CCCN2c2ccn3ncc(c3n2)C(=O)N1.O=C(O)CC(O)(CC(=O)O)C(=O)O` [Compound 1 citrate], in data set [3], the “material recovered after salt disproportionation study (XRPD)” value is “poorly crystalline citrate salt”. Also, the “hygroscopicity by DVS (in words)” value in data set [4] (DVS humidity conditions) was “low hygroscopicity”. For the same compound, the “change in crystalline form after exposure to DVS conditions (post-DVS XRPD)” value in data set [4] (after DVS cycle) was “no changes in crystalline form”. The “mass uptake (DVS)” value in data set [4] (at 90% RH) was “around 1.8%”. The “change in purity after 1 week stability test (UPLC)” value in data set [5] (40° C./75% RH), in data set [5] (80° C.) and in data set [5] (ambient light) was “no change to purity” throughout. Besides, the “change to form after 1 week stability test (XRPD)” value in data set [5] (40° C./75% RH), in data set [5] (80° C.) and in data set [5] (ambient light) was “no change to form” throughout. For the same compound, the “solid recovered from hydration screen (XRPD)” value was “poorly crystalline citrate salt” in data set [6] (high water activity aw=0.919, 24 hr); “poorly crystalline citrate salt” in data set [6] (low water activity aw=0.281, 24 hr); “unknown form, referred to here as Form B” in data set [6] (medium water activity aw=0.776, 24 hr). Further, the “changes to form or crystallinity” value in data set [1] (salt recovered from TBME) and in data set [1] (salt recovered from acetone) was “a decrease to crystallinity but no change to form” each time. The solubility thermodynamic at 24 h is 300 µg/mL in the data set “Thermodynamic solubility” (aqueous buffer, pH 4.5 buffer); 900 µg/mL in the data set “Thermodynamic solubility” (pH 6.8 potassium phosphate buffer, aqueous buffer, pH 6.8 buffer); 18600 µg/mL in “Thermodynamic solubility” (simulated gastric fluid, pH 1 buffer); 21000 µg/mL in the data set “Thermodynamic solubility” (un-buffered water). Further, the “solids recovered after thermodynamic solubility study (XRPD)” value was “poorly crystalline solids” in “Thermodynamic solubility” (pH 1), “Compound 1 citrate” in the data set “Thermodynamic solubility” (pH 4.5), “poorly crystalline free base” in the data set “Thermodynamic solubility” (pH 6.8) and “Compound 1 citrate” in the data set “Thermodynamic solubility” (un-buffered water). In addition, the “thermodynamic solubility (in words)” value in “Thermodynamic solubility” (pH 1) is recorded as “high solubility”; in the data set “Thermodynamic solubility” (pH 4.5) it was “lower solubility”; in the data set “Thermodynamic solubility” (pH 6.8), “lower solubility”; in the data set “Thermodynamic solubility” (un-buffered water), “highly soluble”.
As for `C[C@@H]1CCc2ncc(F)cc2[C@H]2CCCN2c2ccn3ncc(c3n2)C(=O)N1.O=C(O)C(=O)O` [Compound 1 oxalate], the “changes to form or crystallinity” value in data set [1] (salt recovered from ethanol) was “a change in crystallinity and form”; in data set [1] (salt recovered from methanol), “no change to crystallinity however, changes to form were seen”.
As to `C[C@@H]1CCc2ncc(F)cc2[C@H]2CCCN2c2ccn3ncc(c3n2)C(=O)N1` [Compound 1, (6R,15R)-9-fluoro-15-methyl-2,11,16,20,21,24-hexaazapentacyclo[16.5.2.0^2,6.0^7,12.0^21,25]pentacosa-1 (24),7,9,11,18(25), 19,22-heptaen-17-one], the “change in purity after 1 week stability test (UPLC)” value in data set [5] (40° C./75% RH), in data set [5] (80° C.) and in data set [5] (ambient light) was “no change in purity” each time. Besides, the “change to form after 1 week stability test (XRPD)” value in data set [5] (40° C./75% RH), in data set [5] (80° C.) and in data set [5] (ambient light) was “no change to form” throughout. In addition, the “average purity after 1 week stability test (UPLC)” value in data set [5] (40° C./75% RH (relative humidity test)) was 99.2%; in data set [5] (80° C.) it was 99.3%; in data set [5] (ambient light), 99.2%. For the same compound, the solubility in data set [7] (organic solvent or mixture, in 1-Propanol) was above 100000 µg/mL; in data set [7] (organic solvent or mixture, in 2-Methyl THF), below 5000 µg/mL; in data set [7] (organic solvent or mixture, in Cyclohexane), below 5000 µg/mL; in data set [7] (organic solvent or mixture, in Cyclopentylmethyl ether) it was below 5000 µg/mL; in data set [7] (organic solvent or mixture, in Dichloromethane), above 100000 µg/mL; in data set [7] (organic solvent or mixture, in Diisopropyl ether), below 5000 µg/mL. Besides, the solubility in data set [7] (organic solvent or mixture, in Dimethylformamide) is above 100000 µg/mL; in data set [7] (organic solvent or mixture, in Ethyl acetate), below 5000 µg/mL; in data set [7] (organic solvent or mixture, in Heptane), below 5000 µg/mL; in data set [7] (organic solvent or mixture, in Isobutyl acetate), below 5000 µg/mL; in data set [7] (organic solvent or mixture, in Isopropyl acetate) it was below 5000 µg/mL; in data set [7] (organic solvent or mixture, in N,N-Dimethylacetamide) it was above 100000 µg/mL. Also, the solubility is above 100000 µg/mL in data set [7] (organic solvent or mixture, in N-Methylpyrrolidone); below 5000 µg/mL in data set [7] (organic solvent or mixture, in TBME:Heptane (60:40 v/v)); below 5000 µg/mL in data set [7] (organic solvent or mixture, in TBME); below 5000 µg/mL in data set [7] (organic solvent or mixture, in Toluene); below 5000 µg/mL in data set [7] (in Water).
For `C[C@@H]1CCc2ncc(F)cc2[C@H]2CCCN2c2ccn3ncc(c3n2)C(=O)N1.O=C(O)/C=C/C(=O)O` [Compound 1 fumarate], the “changes to form or crystallinity” value in data set [1] (salt recovered from acetone) is given as “a slight decrease to crystallinity however, no change to form”.
`CCS(=O)(=O)O` [Ethane sulfonic acid]: the “pKa 1” value in data set [2] is −2.05.
`O=C(O)CNC(=O)c1ccccc1` [Hippuric acid]: the “pKa 1” value in data set [2] is 3.55.
As for `C[C@@H]1CCc2ncc(F)cc2[C@H]2CCCN2c2ccn3ncc(c3n2)C(=O)N1.Cc1ccc(S(=O)(=O)O)cc1` [Compound 1 tosylate], the “changes to form or crystallinity” value in data set [1] (salt recovered from acetone) was “become amorphous”.
The same measure, in the same setting: as for `C[C@@H]1CCc2ncc(F)cc2[C@H]2CCCN2c2ccn3ncc(c3n2)C(=O)N1.O=C(O)CCC(=O)O` [Compound 1 succinate], the entry is “a decrease in crystallinity but no change to form”.
Turning to `C[C@@H]1CCc2ncc(F)cc2[C@H]2CCCN2c2ccn3ncc(c3n2)C(=O)N1.O=C(O)C[C@H](O)C(=O)O` [Compound 1 L-malate], the “changes to form or crystallinity” value in data set [1] (salt recovered from TBME) is “no change to crystallinity and form”.
In the case of `O=C(O)[C@H](O)[C@@H](O)[C@H](O)[C@H](O)CO` [D-Gluconic acid (50% in water), D-Gluconic acid], the “pKa 1” value in data set [2] is on record as 3.76.
Take `O=S(=O)(O)CCO` [2-Hydroxy ethanesulfonic acid]: the “pKa 1” value in data set [2] was 1.66.
